In the test the target is T1, human KDR (Homo sapiens, UniProt P35968).
T1 construct: cloning the cytoplasmic domain of the KDR kinase as an in frame fusion at the carboxy terminus of the GST gene; made in house; host or cells: Spodoptera frugiperda (Sf21) insect cells, baculovirus vector pAcG2T
The test is described as follows: VEGF receptor kinase assay. Type of test: biochemical.

In patent publication US6872724B2, “Polymorphs with tyrosine kinase activity” (Merck & Co., Inc., priority 2002, dated 2005) one finds kinase inhibitory activity data, which are given here for one compound.

The structures appear in SMILES notation.

T1 sequence (P35968 786-1356 limits assumed): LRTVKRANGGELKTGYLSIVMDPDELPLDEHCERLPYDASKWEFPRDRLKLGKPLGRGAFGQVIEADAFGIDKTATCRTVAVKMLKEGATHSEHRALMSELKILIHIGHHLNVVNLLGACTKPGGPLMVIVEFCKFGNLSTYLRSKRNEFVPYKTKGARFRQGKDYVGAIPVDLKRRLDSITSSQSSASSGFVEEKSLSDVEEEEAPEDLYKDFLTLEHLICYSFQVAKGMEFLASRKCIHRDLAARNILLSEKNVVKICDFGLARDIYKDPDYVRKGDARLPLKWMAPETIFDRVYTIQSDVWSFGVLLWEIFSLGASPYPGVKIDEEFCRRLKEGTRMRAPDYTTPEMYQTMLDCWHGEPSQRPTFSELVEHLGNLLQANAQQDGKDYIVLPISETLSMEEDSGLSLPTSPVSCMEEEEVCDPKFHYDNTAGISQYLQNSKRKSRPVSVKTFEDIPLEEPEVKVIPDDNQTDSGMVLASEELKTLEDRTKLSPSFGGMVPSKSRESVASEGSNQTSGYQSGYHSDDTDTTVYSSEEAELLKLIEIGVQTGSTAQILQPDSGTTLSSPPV
Experimental: I. VEGF Receptor Kinase Assay
VEGF receptor kinase activity is measured by incorporation of radio-labeled phosphate into polyglutamic acid, tyrosine, 4:1 (pEY) substrate. The phosphorylated pEY product is trapped onto a filter membrane and the incorporation of radio-labeled phosphate quantified by scintillation counting.
VEGF Receptor Kinase The intracellular tyrosine kinase domains of human KDR (Terman, B. I. et al. Oncogene (1991) vol. 6, pp. 1677-1683.) and Flt-1 (Shibuya, M. et al. Oncogene (1990) vol. 5, pp. 519-524) were cloned as glutathione S-transferase (GST) gene fusion proteins. This was accomplished by cloning the cytoplasmic domain of the KDR kinase as an in frame fusion at the carboxy terminus of the GST gene. Soluble recombinant GST-kinase domain fusion proteins were expressed in Spodoptera frugiperda (Sf21) insect cells (Invitrogen) using a baculovirus expression vector (pAcG2T, Pharmingen). […]

Take `CNC(=O)N1CCN(Cc2ccnc(Nc3ncc(C#N)s3)c2)CC1` [Compound 4-4, 4-[2-(5-cyano-thiazol-2-ylamino)-pyridin-4-ylmethyl]-piperazine-1-carboxylic acid methylamide]: the kinase inhibitory activity entry is “inhibits the kinase KDR”.
